Test results published in patent US20130039998A1, “COMPOSITIONS OF MODULATORS OF THE WNT/BETA-CATENIN PATHWAY AND BENZAMIDE AND/OR HYDROXAMIC ACID DERIVATIVES TO TREAT BIPOLAR DISORDER” (UNIVERSITY OF WASHINGTON, priority 2008, published 2013).
“Also recorded” adds a separate entry of the source.

Tests used:
[1] = test system: Wnt/β-catenin signalling (TCF/LEF transcription), HEK-293T cells; assay: pBARLS beta-catenin activated reporter (TCF/LEF transcription) in HEK-293T cells; format: cell-based, human; conditions: for activation of pBARLS reporter in the presence of lithium: 25 μM compound plus lithium 10 mM; for activation of pBARLS reporter, compound alone (FIG. 3B) / activation of pBARLS reporter in the presence of lithium (FIG. 3B): HEK293T, dose response; for activation of pBAR reporter (FIG. 1B): HEK-293T cells (human)
Source text: (§1) To monitor Wnt/β-catenin signalling the beta-catenin activated reporter (BAR) system developed at the laboratory of Randall Moon, University of Washington, Seattle, Wash., was used. The BAR system contains a concatemer of twelve TCF (T-cell factor) response elements separated by unique five nucleotide linkers specifically designed to minimize recombination that can lead to loss of TCF binding sites. This series of TCF response elements is inserted upstream of Promega's minP minimal promoter completing a functional promoter that drives the transcription of firefly luciferase (pBARLS) along with a PGK promoter driving a puromycin selectable maker. These reporters were inserted between the LTRs (long terminal repeats) of a lentiviral transducing plasmid. […] The pfuBARS reporter is identical to their respective parent reporter with the exception that each TCF DNA binding element contains a two-base substitution conferring a non-functional element. The essentially identical nature of the control reporters provides the most optimal experimental control, as well as allowing for identical lentiviral titer production when generated side by side with the responsive reporter.
(§2) Cells were plated, treated, and the luciferase activity measured in a 384-well plate. The volume of culture media in each well prior to measuring luciferase activity was 40 μL. After incubation with compounds, 10 μL of Promega Firefly luciferase reagent was added using a liquid dispenser and incubated for 10 minutes at room temperature. Total luminescence was read on an Envision (Perkin Elmer) plate reader. Data was expressed relative to baseline of adding DMSO alone.

[2] = test system: Wnt/β-catenin signalling (TCF/LEF transcription), HT22 cells; assay: pBARLS beta-catenin activated reporter (TCF/LEF transcription) in HT22 cells; format: cell-based, mouse; conditions: for activation of pBARLS reporter in the presence of lithium / activation of transcription of pBARLS reporter, compound alone: HT22, 24 hr; for activation of pBARLS reporter in the presence of lithium: 25 μM compound plus lithium 10 mM; for activation of transcription of pBARLS reporter, compound alone: lithium 10 mM, MS-275, CI-994, SAHA 25 μM; for activation of pBAR reporter (FIG. 1B): HT22 cells (mouse)
Source text: as §1, §2

[3] = test system: pfuBARS control reporter (non-functional TCF elements), HEK-293T cells
Source text: as §1, §2

GSK-3 = conditions: from Ring et al. 2003 / Cline et al. 2002, cited from earlier work; for EC50: read-out: half-maximal effective concentration [EC50]
HDAC1 = target: T1, HDAC1 (Homo sapiens, UniProt Q13547); assay: Fluorimetric deacetylase assay, HDAC1; format: biochemical; conditions: Class I; avg n = 2 with class-specific substrates
T1 construct: purchased BPS Biosciences

HDAC5 = target: T2, HDAC5 (Homo sapiens, UniProt Q9UQL6); assay: Fluorimetric deacetylase assay, HDAC5; format: biochemical; conditions: Class IIa
T2 construct: purchased BPS Biosciences

HDAC6 = HDAC6 (Homo sapiens, UniProt Q9UBN7); assay: Fluorimetric deacetylase assay, HDAC6; format: biochemical
Source text: (§3) To measure the effects of compounds on HDAC activity, a homogenous, fluorimetric deacetylase assay miniaturized to 384-well plate format was used. To perform this assay, a buffered solution containing a recombinant human deacetylase was transferred to a microtiter plate using a robotic plate-filler.
(§4) Following compound transfer, a second buffered solution was transferred containing trypsin and a class-specific, tripeptide substrate (AcK-AMC) terminating in an acetyl-lysine, which is amide-coupled to 7-amino-4-methylcoumarin (AMC). Following substrate hydrolysis by the deacetylase, trypsin cleaves the terminal amide bond releasing AMC. With an excitation/emission maximum of 350-380/440-460 nm, AMC fluorescence is captured by a multilabel plate reader. For a kinetic version of the assay, fluorescence measurements was recorded every 0.5-5 minutes over 60 minutes. Data were plotted on a well-by-well basis to measure the slope of increasing fluorescence over time, corresponding to enzymatic activity. HDAC enzymes used were commercially-available (BPS Biosciences San Diego, Calif.).

[4] = test system: T3, class I and class II HDACs; assay: In vitro class I and class II HDAC inhibition; format: biochemical, human; conditions: compared with valproate
T3 construct: other: HDAC1/2/3 together; other: compared with valproate
Source text: as §3, §4

[5] = listed as Wnt3a conditioned media

HDAC6, sequence (Q9UBN7 whole entry): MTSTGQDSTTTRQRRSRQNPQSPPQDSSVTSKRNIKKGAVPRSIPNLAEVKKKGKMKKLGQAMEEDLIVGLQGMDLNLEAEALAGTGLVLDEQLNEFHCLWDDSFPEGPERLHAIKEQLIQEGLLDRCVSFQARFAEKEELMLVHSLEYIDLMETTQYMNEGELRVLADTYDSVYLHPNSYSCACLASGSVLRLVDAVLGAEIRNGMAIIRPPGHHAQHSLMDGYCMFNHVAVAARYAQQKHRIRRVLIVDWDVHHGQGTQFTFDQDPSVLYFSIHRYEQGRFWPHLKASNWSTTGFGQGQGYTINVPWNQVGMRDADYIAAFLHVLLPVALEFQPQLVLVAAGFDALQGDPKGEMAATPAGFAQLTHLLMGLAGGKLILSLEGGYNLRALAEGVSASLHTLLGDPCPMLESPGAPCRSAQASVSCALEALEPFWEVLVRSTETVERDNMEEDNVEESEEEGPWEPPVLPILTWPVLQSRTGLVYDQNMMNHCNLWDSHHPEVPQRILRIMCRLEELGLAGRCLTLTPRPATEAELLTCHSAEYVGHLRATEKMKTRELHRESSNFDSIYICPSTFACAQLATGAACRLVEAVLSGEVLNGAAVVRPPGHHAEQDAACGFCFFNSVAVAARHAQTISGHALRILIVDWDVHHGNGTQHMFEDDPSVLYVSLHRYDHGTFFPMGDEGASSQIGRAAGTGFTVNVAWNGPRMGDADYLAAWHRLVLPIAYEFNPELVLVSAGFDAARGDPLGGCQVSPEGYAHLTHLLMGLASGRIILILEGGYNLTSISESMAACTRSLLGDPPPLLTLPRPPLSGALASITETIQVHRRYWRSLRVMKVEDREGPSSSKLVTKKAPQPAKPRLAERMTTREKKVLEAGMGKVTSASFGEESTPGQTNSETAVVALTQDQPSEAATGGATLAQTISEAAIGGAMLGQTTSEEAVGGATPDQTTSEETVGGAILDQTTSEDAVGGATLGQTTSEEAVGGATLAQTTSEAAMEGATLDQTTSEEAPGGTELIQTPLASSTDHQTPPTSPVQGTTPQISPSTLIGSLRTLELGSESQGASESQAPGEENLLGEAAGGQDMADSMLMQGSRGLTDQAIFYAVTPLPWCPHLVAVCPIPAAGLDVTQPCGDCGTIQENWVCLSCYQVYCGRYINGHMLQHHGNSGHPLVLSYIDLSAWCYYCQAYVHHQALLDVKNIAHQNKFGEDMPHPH
T2 sequence (Q9UQL6 whole entry): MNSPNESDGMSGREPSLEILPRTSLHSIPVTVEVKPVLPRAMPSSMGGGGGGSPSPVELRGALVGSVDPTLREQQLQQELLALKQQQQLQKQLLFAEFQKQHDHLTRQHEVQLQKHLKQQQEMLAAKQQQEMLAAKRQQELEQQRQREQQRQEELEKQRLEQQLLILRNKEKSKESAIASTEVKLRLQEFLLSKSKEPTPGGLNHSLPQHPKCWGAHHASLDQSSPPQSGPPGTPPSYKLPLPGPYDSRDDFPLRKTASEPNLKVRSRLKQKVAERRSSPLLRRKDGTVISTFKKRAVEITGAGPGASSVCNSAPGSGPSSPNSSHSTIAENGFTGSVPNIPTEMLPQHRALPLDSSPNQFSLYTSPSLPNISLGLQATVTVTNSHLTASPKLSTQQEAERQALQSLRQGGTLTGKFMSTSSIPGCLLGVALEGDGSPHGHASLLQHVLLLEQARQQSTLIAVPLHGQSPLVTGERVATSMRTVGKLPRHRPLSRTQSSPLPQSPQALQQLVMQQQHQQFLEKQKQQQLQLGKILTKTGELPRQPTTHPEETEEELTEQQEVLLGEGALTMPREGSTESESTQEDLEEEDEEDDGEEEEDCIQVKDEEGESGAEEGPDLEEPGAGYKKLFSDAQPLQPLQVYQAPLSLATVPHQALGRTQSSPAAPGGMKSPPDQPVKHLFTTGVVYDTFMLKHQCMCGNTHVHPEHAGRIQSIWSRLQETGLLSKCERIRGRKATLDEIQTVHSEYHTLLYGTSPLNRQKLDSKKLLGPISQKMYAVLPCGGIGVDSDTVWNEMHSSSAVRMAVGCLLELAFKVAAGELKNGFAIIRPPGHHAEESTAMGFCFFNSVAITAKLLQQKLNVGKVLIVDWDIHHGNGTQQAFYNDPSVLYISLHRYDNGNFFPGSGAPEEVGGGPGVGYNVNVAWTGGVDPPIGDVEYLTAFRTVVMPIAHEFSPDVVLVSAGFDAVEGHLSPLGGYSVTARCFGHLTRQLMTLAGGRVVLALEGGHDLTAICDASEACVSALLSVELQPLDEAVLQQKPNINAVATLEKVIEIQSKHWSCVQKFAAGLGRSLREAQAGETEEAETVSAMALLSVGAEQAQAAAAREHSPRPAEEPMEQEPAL
T1 sequence (Q13547 whole entry): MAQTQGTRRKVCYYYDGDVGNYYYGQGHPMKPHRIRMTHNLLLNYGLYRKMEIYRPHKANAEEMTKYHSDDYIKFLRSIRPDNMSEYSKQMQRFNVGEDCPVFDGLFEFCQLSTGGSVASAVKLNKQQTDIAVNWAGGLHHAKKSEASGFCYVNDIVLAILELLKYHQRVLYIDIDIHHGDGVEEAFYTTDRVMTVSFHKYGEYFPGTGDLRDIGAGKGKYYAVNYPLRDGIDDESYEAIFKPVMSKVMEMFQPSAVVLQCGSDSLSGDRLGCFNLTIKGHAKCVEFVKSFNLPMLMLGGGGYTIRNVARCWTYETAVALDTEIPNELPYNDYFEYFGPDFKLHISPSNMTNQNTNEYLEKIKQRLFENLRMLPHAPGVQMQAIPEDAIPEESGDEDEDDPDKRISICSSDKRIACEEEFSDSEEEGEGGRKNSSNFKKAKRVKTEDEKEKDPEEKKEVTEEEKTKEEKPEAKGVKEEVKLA

O=C(CCCCCCC(=O)Nc1ccccc1)NO [SAHA]
activation of pBARLS reporter in the presence of lithium ([1]; HEK-293T, 24 hr): strong synergistic activation of transcription; also recorded: strong synergy
activation of pBARLS reporter in the presence of lithium [2]: strong synergistic activation of transcription
activation of transcription of pBARLS reporter, compound alone [2]: unable to activate transcription

Nc1ccccc1NC(=O)c1ccc(CNC(=O)OCc2cccnc2)cc1 [MS-275]
activation of pBARLS reporter, compound alone (FIG. 3B) ([1]; 24 hr, alone): activation on their own
activation of pBARLS reporter in the presence of lithium (FIG. 3B) ([1]; 24 hr, lithium 10 mM): synergistic activation
activation of pBARLS reporter in the presence of lithium ([1]; HEK-293T, 24 hr): strong synergistic activation of transcription; also recorded: strong synergy
activation of transcription of pBARLS reporter, compound alone ([1]; HEK-293T, 24 hr, lithium 10 mM, MS-275, CI-994, SAHA 25 μM, alone): activated transcription of the reporter; also recorded: activate transcription on their own
activation of pBARLS reporter in the presence of lithium [2]: strong synergistic activation of transcription
activation of transcription of pBARLS reporter, compound alone [2]: partially capable of activating transcription; also recorded: capable of activating transcription on its own
activity in pfuBARS control reporter, compound alone [3]: no activity
activity in pfuBARS control reporter in the presence of lithium [3]: no activity

Cc1[nH]c2ccccc2c1CCNCc1ccc(/C=C/C(=O)NO)cc1 [panobinostat]
activation of pBARLS reporter, compound alone (FIG. 3B) ([1]; 24 hr, alone): activation on their own
activation of pBARLS reporter in the presence of lithium (FIG. 3B) ([1]; 24 hr, lithium 10 mM): synergistic activation
potency relative to SAHA (dose responses, FIG. 3) ([1]; pBARLS reporter dose response): more potent than SAHA

Wnt3a
activation of pBAR reporter (FIG. 1B) [1]: activation
activation of pBAR reporter (FIG. 1B) [1, 5]: capable of responding
activation of pBAR reporter (FIG. 1B) [2]: activation
activation of pBAR reporter (FIG. 1B) [2, 5]: capable of responding

CCCC(CCC)C(=O)O [valproate]
IC50 (HDAC1): 27 µM
IC50 (HDAC5): > 10000 µM
IC50 (HDAC6): > 10000 µM

O=[N+]([O-])c1ccc(NCCNc2ncc(-c3ncc[nH]3)c(-c3ccc(Cl)cc3Cl)n2)nc1 [CHIR-837]
selectivity for GSK-3 (GSK-3): > 5,000 fold
EC50 (GSK-3): 0.375 µM

CC(=O)Nc1ccc(C(=O)Nc2ccccc2N)cc1 [CI-994]
activity in pfuBARS control reporter, compound alone [3]: no activity
activity in pfuBARS control reporter in the presence of lithium [3]: no activity
potency on class I HDACs in comparison to valproate [4]: much more potent
